The subject of test [1] is Staphylococcus aureus. Briefly: microbe, parasite or virus in culture. To be noted: NCTC 13616, 20 h.
Description: Antibacterial activity against methicillin-resistant Staphylococcus aureus NCTC 13616 assessed as reduction in bacterial growth incubated for 20 hrs by broth micro-dilution method
The test system of the next test is Bacillus subtilis. Briefly: microbe, parasite or virus in culture. To be noted: ATCC 6633, 20 h.
A further test relates to Proteus vulgaris. Briefly: microbe, parasite or virus in culture. To be noted: ATCC 13315, 24 h.
For test [2], the system named is Bacillus cereus. Briefly: microbe, parasite or virus in culture. Particulars: ATCC 14579.
Description: Antibacterial activity against Bacillus cereus ATCC 14579 assessed as reduction in bacterial growth incubated for 18 to 24 hrs by broth microdilution method
Another test deals with Klebsiella pneumoniae. Briefly: microbe, parasite or virus in culture. Particulars: ATCC 43816, 20 h.
The test system of test [3] is Escherichia coli. Briefly: microbe, parasite or virus in culture. To be noted: ATCC 8739, 20 h.
Description: Antimicrobial activity against Escherichia coli ATCC 8739 assessed as reduction in bacterial growth incubated for 20 hrs by broth microdilution analysis
The test system of test [4] is Enterococcus faecalis. Briefly: microbe, parasite or virus in culture. Particulars: ATTC 29212, 24 h.
Description: Antibacterial activity against Enterococcus faecalis ATCC 29212 assessed as reduction in bacterial growth incubated for 24 hrs by CLSI protocol based assay
Test [5] relates to Bacillus cereus. Briefly: microbe, parasite or virus in culture. Particulars: ATTC 10876.
Description: Antibacterial activity against Bacillus cereus ATTC 10876 assessed as reduction in bacterial growth incubated for 18 to 24 hrs by broth microdilution method
Test [6] has as its system Enterococcus faecalis. Briefly: microbe, parasite or virus in culture. Particulars: ATCC 29212, 24 h.
Description: Antibacterial activity against Enterococcus faecalis ATCC 29212 assessed as inhibition of bacterial growth incubated for 24 hrs by broth microdilution method
The next test has as its system Pseudomonas aeruginosa. Briefly: microbe, parasite or virus in culture. To be noted: ATCC 27853.
For test [7], the system named is Staphylococcus aureus. Briefly: microbe, parasite or virus in culture. Particulars: ATCC 25923.
Description: Antibacterial activity against Staphylococcus aureus ATCC 25923 assessed as reduction in bacterial growth incubated for 18 to 24 hrs by broth microdilution method
Test [8] relates to Escherichia coli. Briefly: microbe, parasite or virus in culture. To be noted: ATCC 25922.
Description: Antibacterial activity against Escherichia coli ATCC 25922 assessed as reduction in bacterial growth incubated for 18 to 24 hrs by broth microdilution method
The test system of the next test is Proteus mirabilis. Briefly: microbe, parasite or virus in culture. To be noted: ATCC 35659.
The target in test [9] is T1, Prostaglandin G/H synthase 2 (Homo sapiens, UniProt P35354).
T1 sequence (P35354 whole entry): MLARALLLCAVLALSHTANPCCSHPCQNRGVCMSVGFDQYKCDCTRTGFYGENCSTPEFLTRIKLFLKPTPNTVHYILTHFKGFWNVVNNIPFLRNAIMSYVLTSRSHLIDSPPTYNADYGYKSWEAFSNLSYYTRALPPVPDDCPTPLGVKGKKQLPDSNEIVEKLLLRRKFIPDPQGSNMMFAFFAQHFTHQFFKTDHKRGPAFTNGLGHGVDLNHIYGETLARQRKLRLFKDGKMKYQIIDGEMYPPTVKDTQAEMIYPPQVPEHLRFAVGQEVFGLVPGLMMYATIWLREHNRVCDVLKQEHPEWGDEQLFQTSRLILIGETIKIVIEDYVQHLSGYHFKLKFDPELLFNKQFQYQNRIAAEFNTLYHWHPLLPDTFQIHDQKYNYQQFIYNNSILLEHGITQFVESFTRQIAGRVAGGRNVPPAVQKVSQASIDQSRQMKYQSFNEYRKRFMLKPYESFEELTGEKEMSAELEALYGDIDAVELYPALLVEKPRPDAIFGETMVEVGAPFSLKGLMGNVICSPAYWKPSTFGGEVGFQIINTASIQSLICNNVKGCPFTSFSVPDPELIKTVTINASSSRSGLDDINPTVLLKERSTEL
Briefly: Inhibition of human recombinant COX-2.

For test [10], the target named is T2, Prostaglandin G/H synthase 1 (Ovis aries, UniProt P05979).
T2 sequence (P05979 whole entry): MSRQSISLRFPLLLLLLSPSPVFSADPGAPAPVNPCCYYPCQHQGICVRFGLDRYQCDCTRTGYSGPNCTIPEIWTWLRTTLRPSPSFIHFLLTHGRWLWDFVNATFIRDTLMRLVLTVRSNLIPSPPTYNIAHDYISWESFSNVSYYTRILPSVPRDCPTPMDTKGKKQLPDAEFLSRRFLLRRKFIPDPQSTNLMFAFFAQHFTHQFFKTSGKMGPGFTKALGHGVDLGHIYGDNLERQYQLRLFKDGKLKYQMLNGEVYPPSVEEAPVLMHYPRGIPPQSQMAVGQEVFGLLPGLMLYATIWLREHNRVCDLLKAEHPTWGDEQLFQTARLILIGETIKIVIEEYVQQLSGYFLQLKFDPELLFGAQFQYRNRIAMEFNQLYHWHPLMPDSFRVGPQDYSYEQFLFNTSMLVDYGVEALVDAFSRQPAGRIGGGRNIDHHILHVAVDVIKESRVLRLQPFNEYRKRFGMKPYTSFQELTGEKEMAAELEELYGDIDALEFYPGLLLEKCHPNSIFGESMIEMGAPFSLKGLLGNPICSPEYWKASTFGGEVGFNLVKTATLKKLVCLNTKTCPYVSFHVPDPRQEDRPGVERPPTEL
Briefly: Inhibition of ovine COX-1.

In brackets after ≈: the same amount, converted by molar mass.

We go through 33 compounds from ChEMBL document CHEMBL6074626, “Recent advances in triazole synthesis via click chemistry and their pharmacological applications: A review” (Bioorg Med Chem Lett, 2024).

Description for Bacillus subtilis: Antibacterial activity against Bacillus subtilis ATCC 6633 assessed as bacterial growth inhibition measured for 20 hrs by micro-broth dilution method
Description for Klebsiella pneumoniae: Antimicrobial activity against Klebsiella pneumoniae ATCC 43816 assessed as reduction in bacterial growth incubated for 20 hrs by broth microdilution analysis
Description for Proteus mirabilis: Antibacterial activity against Proteus mirabilis ATCC 35659 assessed as reduction in bacterial growth incubated for 18 to 24 hrs by broth microdilution method
Description for Proteus vulgaris: Antimicrobial activity against Proteus vulgaris ATCC 13315 assessed as microbial growth inhibition incubated for 24 hrs by broth microdilution method
Description for Pseudomonas aeruginosa: Antimicrobial activity against Pseudomonas aeruginosa ATCC 27853 assessed as inhibition of microbial growth by CLSI protocol based two-fold serial broth microdilution method

With `CC(C)Cc1ccc(C(C)C(=O)c2ccc(OCc3cn(C4CCCC4)nn3)cc2O)cc1` (centres undefined), the MIC in the test on Staphylococcus aureus [1], with Bacillus subtilis, with Proteus vulgaris, in the test on Bacillus cereus [2], against Klebsiella pneumoniae and in the test with Escherichia coli [3] was 12 µg/mL (≈ 26.8 µM) each time.

As for `CCCCCCCCCCCCn1nnc(-c2n[nH]c(=S)n2N)c1-c1n[nH]c(=S)n1N`, the MIC in the test on Enterococcus faecalis [4], in the test with Bacillus cereus [5], against Enterococcus faecalis [6], against Pseudomonas aeruginosa, against Staphylococcus aureus [7] and in the test with Escherichia coli [8] was 1 µM (≈ 0.466 µg/mL) each time. In the test with Proteus mirabilis, this compound registered an MIC of 1 µM (≈ 0.466 µg/mL).

Broadly, the IC50 is the midpoint of a concentration-inhibition curve. Take `COc1ccc(/C=C/C(=O)c2cc(-n3cc(CN4C(=O)C(=O)c5ccccc54)nn3)ccc2O)cc1OC`: the IC50 in [9] was 0.037 µM; in test [10] it was 7.4 µM.

For the compound `CC(C)Cc1ccc(C(C)C(=O)c2ccc(OCc3cn(-c4ccc([N+](=O)[O-])cc4)nn3)cc2O)cc1` (centres undefined), the MIC with Staphylococcus aureus [1], in the test on Bacillus subtilis, in the test on Proteus vulgaris, against Bacillus cereus [2], against Klebsiella pneumoniae and against Escherichia coli [3] was 12 µg/mL (≈ 24 µM) each time.

`CCCCCCCCCCCCCCn1nnc(-c2n[nH]c(=S)n2N)c1-c1n[nH]c(=S)n1N`: the MIC with Enterococcus faecalis [4], in the test with Bacillus cereus [5], against Enterococcus faecalis [6], in the test with Pseudomonas aeruginosa, with Staphylococcus aureus [7] and in the test with Escherichia coli [8] was 1 µM (≈ 0.494 µg/mL) throughout. The MIC in the test on Proteus mirabilis turned out to be 1 µM (≈ 0.494 µg/mL).

Take `CCCCCCCCCCCCn1cc(COc2ccc(C(=O)C(C)c3ccc(CC(C)C)cc3)c(O)c2)nn1` (centres undefined): the MIC in the test with Staphylococcus aureus [1], against Bacillus subtilis, with Proteus vulgaris, with Bacillus cereus [2], against Klebsiella pneumoniae and in the test with Escherichia coli [3] was 12 µg/mL (≈ 21.9 µM) throughout.

For the compound `O=C(/C=C/C=C/c1ccccc1)c1cc(-n2cc(CN3C(=O)C(=O)c4ccccc43)nn2)ccc1O`, the IC50 in [9] is 0.037 µM; in [10], 7.4 µM.

On to `COc1ccc(/C=C/C(=O)c2cc(-n3cc(-c4ccccc4)nn3)ccc2O)cc1OC`, for which the IC50 in test [9] was determined as 0.037 µM; in test [10], 7.4 µM.

Regarding `CCCCCCCCn1cc(COc2ccc(C(=O)C(C)c3ccc(CC(C)C)cc3)c(O)c2)nn1` (centres undefined), the MIC with Staphylococcus aureus [1], with Bacillus subtilis, in the test on Proteus vulgaris, in the test with Bacillus cereus [2], against Klebsiella pneumoniae and against Escherichia coli [3] was 12 µg/mL (≈ 24.4 µM) each time.

`COc1cc(/C=C/C(=O)c2cc(-n3cc(CN4C(=O)C(=O)c5ccccc54)nn3)ccc2O)cc(OC)c1OC`: the figures for the IC50 in [9] and in test [10] were 0.037 µM and 7.4 µM, respectively.

`O=C(/C=C/c1ccc(Cl)cc1)c1cc(-n2cc(CN3C(=O)C(=O)c4ccccc43)nn2)ccc1O`: the IC50 in test [9] turned out to be 0.037 µM; in test [10], 7.4 µM.

Regarding `O=C(/C=C/c1ccccc1)c1cc(-n2cc(CN3C(=O)C(=O)c4ccccc43)nn2)ccc1O`, the IC50 in test [9] is 0.037 µM; in [10] it was 7.4 µM.

On to `CC(C)Cc1ccc(C(C)C(=O)c2ccc(OCc3cn(-c4ccccc4)nn3)cc2O)cc1` (centres undefined), for which the MIC against Staphylococcus aureus [1], against Bacillus subtilis, against Proteus vulgaris, against Bacillus cereus [2], against Klebsiella pneumoniae and with Escherichia coli [3] was 12 µg/mL (≈ 26.3 µM) throughout.

For `CC(C)Cc1ccc(C(C)C(=O)c2ccc(OCc3cn(-c4cccc(Cl)c4)nn3)cc2O)cc1` (centres undefined), the MIC in the test on Staphylococcus aureus [1], in the test with Bacillus subtilis, with Proteus vulgaris, against Bacillus cereus [2], against Klebsiella pneumoniae and with Escherichia coli [3] was 12 µg/mL (≈ 24.5 µM) each time.

Regarding `CCCCCCn1cc(COc2ccc(C(=O)C(C)c3ccc(CC(C)C)cc3)c(O)c2)nn1` (centres undefined), the MIC in the test with Staphylococcus aureus [1], against Bacillus subtilis, against Proteus vulgaris, against Bacillus cereus [2], in the test with Klebsiella pneumoniae and against Escherichia coli [3] was 12 µg/mL (≈ 25.9 µM) throughout.

In the case of `CC(C)Cc1ccc(C(C)C(=O)c2ccc(OCc3cn(C4CCCCC4)nn3)cc2O)cc1` (centres undefined), the MIC in the test with Staphylococcus aureus [1], with Bacillus subtilis, with Proteus vulgaris, in the test on Bacillus cereus [2], in the test with Klebsiella pneumoniae and against Escherichia coli [3] was 12 µg/mL (≈ 26 µM) each time.

With `COc1ccc(/C=C/C(=O)c2cc(-n3cc(-c4ccccc4)nn3)ccc2O)cc1`, the IC50 is 0.037 µM in test [9] and 7.4 µM in [10].

Regarding `O=C(/C=C/c1ccccc1)c1cc(-n2cc(-c3ccccc3)nn2)ccc1O`, the results for the IC50 in [9] and in test [10] were 0.037 µM and 7.4 µM, respectively.

`COc1cc(/C=C/C(=O)c2cc(-n3cc(-c4ccccc4)nn3)ccc2O)cc(OC)c1OC`: the IC50 in test [9] came to 0.037 µM; in test [10], 7.4 µM.

`O=C(/C=C/c1ccc(Br)cc1)c1cc(-n2cc(-c3ccccc3)nn2)ccc1O`: the IC50 in test [9] is 0.037 µM; in test [10], 7.4 µM.

On to `CC(C)Cc1ccc(C(C)C(=O)c2ccc(OCc3cn(-c4ccc(Br)cc4)nn3)cc2O)cc1` (centres undefined), for which the MIC with Staphylococcus aureus [1], with Bacillus subtilis, in the test on Proteus vulgaris, against Bacillus cereus [2], against Klebsiella pneumoniae and with Escherichia coli [3] was 12 µg/mL (≈ 22.5 µM) in each case.

Turning to `CC(C)Cc1ccc(C(C)C(=O)c2ccc(OCc3cn(-c4ccc(Cl)cc4)nn3)cc2O)cc1` (centres undefined), the MIC in the test with Staphylococcus aureus [1], with Bacillus subtilis, in the test with Proteus vulgaris, in the test with Bacillus cereus [2], in the test with Klebsiella pneumoniae and with Escherichia coli [3] was 12 µg/mL (≈ 24.5 µM) each time.

For the compound `O=C(/C=C/c1ccc(O)cc1)c1cc(-n2cc(CN3C(=O)C(=O)c4ccccc43)nn2)ccc1O`, the IC50 in test [9] came to 0.037 µM; in test [10], 7.4 µM.

`CN(C)C(=O)c1ccc(/C=C/C(=O)c2cc(-n3cc(-c4ccccc4)nn3)ccc2O)cc1`: the figures for the IC50 in test [9] and in test [10] were 0.037 µM and 7.4 µM, respectively.

Consider `O=C(/C=C/c1ccc(Br)cc1)c1cc(-n2cc(CN3C(=O)C(=O)c4ccccc43)nn2)ccc1O`, for which the results for the IC50 in test [9] and in test [10] were 0.037 µM and 7.4 µM, respectively.

Regarding `Cc1ccc(/C=C/C(=O)c2cc(-n3cc(-c4ccccc4)nn3)ccc2O)cc1`, the IC50 was determined as 0.037 µM in [9] and 7.4 µM in test [10].

As for `CN(C)C(=O)c1ccc(/C=C/C(=O)c2cc(-n3cc(CN4C(=O)C(=O)c5ccccc54)nn3)ccc2O)cc1`, the IC50 worked out at 0.037 µM in [9] and 7.4 µM in test [10].

As to `O=C(/C=C/c1ccc(O)cc1)c1cc(-n2cc(-c3ccccc3)nn2)ccc1O`, the IC50 in test [9] amounted to 0.037 µM; in test [10], 7.4 µM.

As for `COc1ccc(/C=C/C(=O)c2cc(-n3cc(CN4C(=O)C(=O)c5ccccc54)nn3)ccc2O)cc1`, in test [10], half-maximal inhibition (IC50) required 7.4 µM.

With `Cc1ccc(/C=C/C(=O)c2cc(-n3cc(CN4C(=O)C(=O)c5ccccc54)nn3)ccc2O)cc1`, the IC50 is 0.037 µM in test [9] and 7.4 µM in [10].

As to `CC(C)Cc1ccc(C(C)C(=O)c2ccc(OCc3cn(-c4ccccc4Cl)nn3)cc2O)cc1` (centres undefined), the MIC in the test on Staphylococcus aureus [1], in the test on Bacillus subtilis, with Proteus vulgaris, against Bacillus cereus [2], in the test with Klebsiella pneumoniae and in the test with Escherichia coli [3] was 12 µg/mL (≈ 24.5 µM) in each case.

On to `O=C(/C=C/c1ccc(Cl)cc1)c1cc(-n2cc(-c3ccccc3)nn2)ccc1O`, for which the IC50 came out at 0.037 µM in test [9] and 7.4 µM in test [10].

With `O=C(/C=C/C=C/c1ccccc1)c1cc(-n2cc(-c3ccccc3)nn2)ccc1O`, the IC50 in [9] was 0.037 µM; in test [10] it was 7.4 µM.
